Source: patent publication US20090263489A1, “ANALGESIC AND ANTI-INFLAMMATORY COMPOSITIONS AND METHODS FOR REDUCING, PREVENTING OR TREATING PAIN AND INFLAMMATION” (Warsaw Orthopedic, Inc., priority 2008, published 2009)
Entries after “also recorded” stand apart in the source; their conditions may differ. Where a name gives a salt, the structure may show the parent alone.

Legend:
[1] = Solubility noted for preparing the formulations
[2] = tested on: chronic constriction injury (CCI) rats; experiment: Mechanical allodynia (von Frey monofilaments, 50% paw withdrawal threshold) in chronic constriction injury model; type: in vivo, Wistar rats; conditions: days 8 and 15, vs control (PBS)
Method: (§1) The behavioral animal model of chronic constriction injury (“CCI”) was chosen to evaluate the efficacy of an analgesic and anti-inflammatory agent as a pain and inflammation treatment. This model may mimic pain associated with sciatica in humans.
(§2) Fifty-Six male Wistar rats (Charles River Laboratories, Wilmington, Mass.) weighing 300±26 g the day of surgery (Day 1) were used in this study. All experiments were conducted in accordance with the International Association for the Study of Pain guidelines and approved by the Institutional Animal Care and Use Committee at SRI International, Inc (Menlo Park, Calif.). CCI was induced according to the method of Bennett and Xie. Briefly, each animal was anesthetized by intraperitoneal (IP) injection of sodium pentobarbital at a dose of 60 mg/kg. The animal's common sciatic nerve was exposed and freed from adherent tissue at mid-thigh by separating the biceps femoris muscles by blunt dissection. Four loose ligatures were placed 1 mm apart, using chromic gut suture (4-0 absorbable suture; Jorgensen Laboratories, Inc., Loveland, Colo.).
(§3) Seven animals were randomly assigned to each treatment group.
Mechanical allodynia was measured using von Frey monofilaments (Stoelting, Wood Dale, Ill.) with varying stiffness (2.0-15.0 g) on Days −1, 8, and 15 as described previously (see FIG. 4). Animals were placed on a perforated metallic platform and allowed to habituate to their surroundings for a minimum of 15 minutes before testing. The 50% paw withdrawal threshold response was determined by a sequential increasing and/or decreasing of the stimulus strength (the “up-down method” of Dixon). Each filament was applied with enough pressure to cause a buckling effect. Absence of a paw lifting/withdrawal response after 5 seconds prompted the use of the filament of next higher weight. Paw withdrawal indicating a positive response prompted the use of a weaker filament. After the initial response (i.e., paw withdrawal), the testing continued for four additional measurements and was used to calculate the response threshold. Four consecutive positive responses received a score of 0.25 g, and five consecutive negative responses (i.e., no paw withdrawal) received a score of 15 g. The 50% paw withdrawal threshold was calculated using the formula: 10(Xf+kd)/10,000, where Xf is the final von Frey filament used (log units), k is a value that analyzes the response pattern (taken from the table published by Chaplan et al.), and d is the mean difference between stimuli (log units). The mean and standard error of the mean (SEM) were determined for each treatment group.

[3] = tested on: chronic constriction injury (CCI) rats; experiment: Thermal paw withdrawal latency (Hargreaves test) in chronic constriction injury model; type: in vivo, Wistar rats; conditions: days 7 and 14, vs control (PBS)
Method: as §1, §2, §3
Withdrawal latencies to a noxious thermal stimulus were measured according to the Hargreaves test using a plantar analgesia instrument (Stoelting, Wood Dale, Ill.) on Days −2, 7, and 14 (see FIG. 3). The radiant infrared heat source stimulus intensity was set to IR50 and the cut-off time was set at 15 seconds. Rats were placed on a glass platform and allowed to habituate to the testing chambers for a minimum of 15 minutes prior to each testing session. The thermal stimulus was applied to the plantar surface of the paw. Thermal thresholds were defined as the latency in seconds at the first pain behavior, which includes paw withdrawal, flinching, biting and/or licking of the stimulated paw. The readings for all animals were averaged and the mean and standard error of the mean (SEM) were determined for each treatment group.

[4] = 2 mg/kg/day IP daily, listed as sulindac

Q: With `COc1cccc([C@]2(O)CCCC[C@H]2CN(C)C)c1` (racemic) [Tramadol, (±)cis-2-[(dimethylamino)methyl]-1-(3-methoxyphenyl)cyclohexanol hydrochloride] as the molecule, how does the solubility ([1]; saline, saline or isotonic) read?
A: ≥ 25 mg/mL

Q: Which “Soluble in DMSO” value ([1]; DMSO) does the source give for `CC[C@H](C)C(=O)O[C@H]1C[C@@H](C)C=C2C=C[C@H](C)[C@H](CC[C@@H]3C[C@@H](O)CC(=O)O3)[C@H]21` [Lovastatin, lovastatin] here?
A: up to 40 mg/kg

Q: What about the “mechanical thresholds (von Frey): reducing pain and/or inflammation” value ([2]; 0.3 mg/kg/day IP daily) of the same molecule?
A: effective at reducing pain and/or inflammation for 15 days

Q: What about the “mechanical thresholds (von Frey): reducing pain and/or inflammation” value ([2]; 3 mg/kg/day IP daily) of the same molecule?
A: effective at reducing pain and/or inflammation for 15 days

Q: What about the “mechanical thresholds (von Frey): reducing pain and/or inflammation” value ([2]; 3 mg/kg/day IP daily, listed as lovastatin) of the same molecule?
A: particularly effective at reducing pain and/or inflammation

Q: And the “thermal paw withdrawal latency: reducing pain and/or inflammation” value ([3]; 0.3 mg/kg/day IP daily)?
A: effective at reducing pain and/or inflammation for 14 days

Q: And the “thermal paw withdrawal latency: reducing pain and/or inflammation” value ([3]; 3 mg/kg/day IP daily)?
A: effective at reducing pain and/or inflammation for 14 days; also recorded: particularly effective at reducing pain and/or inflammation

Q: What does the source list for `CC1=C(CC(=O)O)c2cc(F)ccc2C1=Cc1ccc([S+](C)[O-])cc1` (centres unmarked) [Sulindac, 2-[6-fluoro-2-methyl-3-[(4-methylsulfinylphenyl)-methylidene]inden-1-yl]-acetic acid]?
A: mechanical thresholds (von Frey): reducing pain and/or inflammation ([2]; 2 mg/kg/day IP daily): particularly effective at reducing pain and/or inflammation; mechanical thresholds (von Frey): reducing pain and/or inflammation [2, 4]: effective at reducing pain and/or inflammation for 15 days; thermal paw withdrawal latency: reducing pain and/or inflammation ([3]; 2 mg/kg/day IP daily): particularly effective at reducing pain and/or inflammation; thermal paw withdrawal latency: reducing pain and/or inflammation [3, 4]: effective at reducing pain and/or inflammation for 14 days

Q: Which results are given for `N=C(N)NCCSSCCNC(=N)N` [GED, guanidinoethyldisulfide]?
A: solubility in organic solvents ([1]; printed 'irganic solvents'): insoluble; solubility ([1]; water): ≤ 5 mg/mL; mechanical thresholds (von Frey): reducing pain and/or inflammation ([2]; 1 mg/kg/day IP daily): effective at reducing pain and/or inflammation for 15 days; also recorded: particularly effective at reducing pain and/or inflammation; mechanical thresholds (von Frey): reducing pain and/or inflammation ([2]; 3 mg/kg/day IP daily): effective at reducing pain and/or inflammation for 15 days; thermal paw withdrawal latency: reducing pain and/or inflammation ([3]; 1 mg/kg/day IP daily): effective at reducing pain and/or inflammation for 14 days; thermal paw withdrawal latency: reducing pain and/or inflammation ([3]; 3 mg/kg/day IP daily): effective at reducing pain and/or inflammation for 14 days; also recorded: particularly effective at reducing pain and/or inflammation
